From ChEMBL document CHEMBL1201862, “PubChem BioAssay data set” (2004)
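Following 48 hours of exposure in 96-well plates, responses at five concentrations were used to interpolate endpoints linearly. GI50: concentration for 50% inhibition of growth.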 Activity calls are given as the source filed them. Rule as the data show it: active = GI50 up to about 1.1 µM and inactive = higher.

Assays:
Test in all cases: DTP human tumour cell line panel, 48 h
IGROV-1 = system: IGROV-1
SNB-75 = system: SNB-75
OVCAR-4 = system: OVCAR-4
RPMI-8226 = system: RPMI-8226
HCT-116 = system: HCT-116
OVCAR-5 = system: OVCAR-5
SW-620 = system: SW-620
SF-539 = system: SF-539
CCRF-CEM = system: CCRF-CEM
HOP-62 = system: HOP-62
UO-31 = system: UO-31
NCI-H460 = system: NCI-H460
SK-MEL-2 = system: SK-MEL-2
OVCAR-3 = system: OVCAR-3
UACC-257 = system: UACC-257
PC-3 = system: PC-3
DU-145 = system: DU-145

Measured: GI50

O=C(O)\C=C/C=C/C=C/C=C/C(=O)O
inactive: IGROV-1 > 100 µM | SNB-75 > 100 µM | OVCAR-4 > 100 µM | RPMI-8226 > 100 µM | HCT-116 > 100 µM | OVCAR-5 > 100 µM | SW-620 > 100 µM | SF-539 > 100 µM | CCRF-CEM > 100 µM | HOP-62 > 100 µM | UO-31 > 100 µM | NCI-H460 > 100 µM | SK-MEL-2 > 100 µM | OVCAR-3 > 100 µM | UACC-257 > 100 µM

C1COCCSC2=C(SCCO1)SC(=C1SC3=C(SCCOCCOCCS3)S1)S2
inactive: IGROV-1 > 100 µM | SNB-75 21.7 µM | OVCAR-4 48.2 µM | HCT-116 > 100 µM | OVCAR-5 > 100 µM | SW-620 > 100 µM | SF-539 34.5 µM | CCRF-CEM > 100 µM | HOP-62 82.2 µM | UO-31 > 100 µM | NCI-H460 96.4 µM | SK-MEL-2 84.3 µM | OVCAR-3 > 100 µM | UACC-257 > 100 µM

O=C(Nn1c(-c2cccs2)nc2ccc(I)cc2c1=O)c1ccccc1
inactive: IGROV-1 20.2 µM | PC-3 33.9 µM | OVCAR-4 23 µM | DU-145 20.6 µM | HCT-116 35.3 µM | OVCAR-5 37.8 µM | SW-620 71.6 µM | HOP-62 40.7 µM | UO-31 28.3 µM | NCI-H460 26.8 µM | OVCAR-3 16.9 µM

CCN(CC)CCN(C(=O)C(C)(C)C)c1ccccc1N
inactive: IGROV-1 > 100 µM | SNB-75 > 100 µM | PC-3 > 100 µM | OVCAR-4 > 100 µM | RPMI-8226 > 100 µM | DU-145 > 100 µM | HCT-116 > 100 µM | OVCAR-5 > 100 µM | SW-620 > 100 µM | SF-539 > 100 µM | CCRF-CEM > 100 µM | HOP-62 > 100 µM | UO-31 > 100 µM | NCI-H460 > 100 µM | OVCAR-3 > 100 µM | UACC-257 > 100 µM

COc1ccc(C2=Nc3c(nc(OC)[nH]c3=O)NC(c3ccccc3)C2)cc1 (configuration not stated)
inactive: IGROV-1 30.1 µM | SNB-75 12.5 µM | PC-3 48 µM | RPMI-8226 32.7 µM | DU-145 42.3 µM | HCT-116 28.4 µM | OVCAR-5 46.6 µM | SW-620 24.1 µM | SF-539 28.1 µM | CCRF-CEM 30.8 µM | HOP-62 41.5 µM | UO-31 46.2 µM | SK-MEL-2 25.7 µM | OVCAR-3 33.8 µM | UACC-257 49.9 µM

CN(C)Nc1cc(=O)[nH]c(=O)[nH]1
inactive: IGROV-1 > 100 µM | PC-3 > 100 µM | OVCAR-4 > 100 µM | RPMI-8226 > 100 µM | DU-145 > 100 µM | HCT-116 > 100 µM | OVCAR-5 > 100 µM | SW-620 > 100 µM | SF-539 > 100 µM | CCRF-CEM > 100 µM | HOP-62 > 100 µM | UO-31 > 100 µM | NCI-H460 > 100 µM | OVCAR-3 > 100 µM | UACC-257 > 100 µM

O=C1NC2(NC(=O)C1=O)Nc1ccccc1S2
inactive: IGROV-1 > 92.7 µM | SNB-75 68.7 µM | OVCAR-4 40 µM | RPMI-8226 21.6 µM | HCT-116 19.2 µM | OVCAR-5 > 100 µM | SW-620 12.9 µM | SF-539 27 µM | CCRF-CEM 20.2 µM | HOP-62 > 83.8 µM | UO-31 30.7 µM | NCI-H460 51.5 µM | SK-MEL-2 55.8 µM | OVCAR-3 > 89.3 µM | UACC-257 > 61.4 µM

O=c1nc2sc3ccc4ccccc4c3n2nc1O
inactive: IGROV-1 67 µM | SNB-75 41.1 µM | OVCAR-4 28.8 µM | RPMI-8226 > 10 µM | HCT-116 78.9 µM | SW-620 79.4 µM | SF-539 > 100 µM | CCRF-CEM 40.1 µM | HOP-62 23.8 µM | NCI-H460 39.3 µM | OVCAR-3 55.2 µM
